Source: patent publication US7998965B2, “Glutamate aggrecanase inhibitors” (Wyeth LLC, priority 2005, dated 2011)
Read-outs that look alike come from different tables or passages of the source.

Key:
[1] = target: T1, purified recombinant human Aggrecanase-1 (rAgg1) (Homo sapiens, UniProt O75173); experiment: In vitro fluorescence screen for Aggrecanase-1 inhibitors; type: biochemical; conditions: for IC50: read-out: Agg1 IC50; for Ki: read-out: Ki Agg1
T1 sequence (O75173 213-837): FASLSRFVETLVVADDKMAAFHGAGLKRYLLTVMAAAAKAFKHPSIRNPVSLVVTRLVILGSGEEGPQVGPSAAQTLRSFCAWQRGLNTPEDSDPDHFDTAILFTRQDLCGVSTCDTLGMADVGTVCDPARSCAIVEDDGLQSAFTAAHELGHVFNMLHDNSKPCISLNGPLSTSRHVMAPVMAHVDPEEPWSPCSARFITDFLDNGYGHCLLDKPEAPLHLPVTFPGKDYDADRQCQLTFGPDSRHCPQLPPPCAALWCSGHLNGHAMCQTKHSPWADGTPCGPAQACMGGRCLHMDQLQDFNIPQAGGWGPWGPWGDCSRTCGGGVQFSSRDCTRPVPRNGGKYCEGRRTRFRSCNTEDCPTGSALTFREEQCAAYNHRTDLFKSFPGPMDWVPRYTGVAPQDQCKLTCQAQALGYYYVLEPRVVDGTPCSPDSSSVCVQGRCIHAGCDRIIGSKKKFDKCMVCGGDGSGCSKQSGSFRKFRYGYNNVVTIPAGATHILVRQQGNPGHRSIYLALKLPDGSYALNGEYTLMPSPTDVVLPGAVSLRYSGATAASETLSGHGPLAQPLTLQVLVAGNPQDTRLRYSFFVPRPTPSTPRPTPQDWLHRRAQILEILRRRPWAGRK

[2] = target: T2, purified recombinant human Aggrecanase-2 (Ag2t-Phe628-Strep) (Homo sapiens, UniProt Q9UNA0); experiment: In vitro fluorescence screen for Aggrecanase-2 inhibitors; type: biochemical; conditions: for IC50: read-out: Agg 2 IC50; for Ki: read-out: Ki Agg2
T2 construct: the form used is denoted as Ag2t-Phe628-Strep (MW=41,737)
T2 sequence (Q9UNA0 262-628): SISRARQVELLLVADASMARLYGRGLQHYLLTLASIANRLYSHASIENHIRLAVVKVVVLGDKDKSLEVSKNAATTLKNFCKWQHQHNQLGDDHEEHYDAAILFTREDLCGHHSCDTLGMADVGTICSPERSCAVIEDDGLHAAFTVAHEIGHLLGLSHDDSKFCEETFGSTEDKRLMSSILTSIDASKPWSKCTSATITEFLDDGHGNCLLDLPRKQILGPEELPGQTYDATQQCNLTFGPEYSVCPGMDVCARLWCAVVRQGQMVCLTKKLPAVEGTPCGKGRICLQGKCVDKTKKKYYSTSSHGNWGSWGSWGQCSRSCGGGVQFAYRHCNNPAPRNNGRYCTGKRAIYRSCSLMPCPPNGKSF

| SMILES | IC50 ([1]; Table 2) | IC50 ([2]; Table 2) | IC50 ([1]; Table 3) | IC50 ([2]; Table 3) | further results |
| --- | --- | --- | --- | --- | --- |
| CN(CCc1ccccc1)C(=O)[C@H](CCC(=O)O)NC(=O)c1ccc2c(c1)Cc1ccccc1-2 [Example 8DDDDDD, N^2-(9H-fluoren-2-ylcarbonyl)-N-methyl-N-(2-phenylethyl)-L-α-glutamine] | 2400 nM | > 22000 nM | – | – | – |
| O=C(O)CC[C@H](NC(=O)c1ccc(-c2ccc(OCc3ccccc3)cc2)cc1)C(=O)NCc1ccccc1 [Example 15J, N-benzyl-N^2-{[4′-(benzyloxy)biphenyl-4-yl]carbonyl}-L-α-glutamine] | 510 nM | ~3130 nM | – | – | – |
| O=C(O)CC[C@H](NC(=O)C1c2ccccc2-c2ccccc21)C(=O)NCc1ccccc1 [Example 8KKKKK, N^1-benzyl-N^2-(9H-fluoren-9-ylcarbonyl)-L-α-glutamine] | > 50000 nM | > 22000 nM | – | – | – |
| CC(C)(Cc1ccc(Cl)cc1)NC(=O)[C@H](CCC(=O)O)NC(=O)c1ccc(-c2ccc(Cl)cc2)s1 [N-[2-(4-chlorophenyl)-1,1-dimethylethyl]-N^2-{[5-(4-chlorophenyl)-2-thienyl]carbonyl}-L-α-glutamine] | – | – | < 30 nM | > 300 nM | – |
| O=C(O)CC[C@H](NC(=O)c1cccc(Oc2ccccc2)c1)C(=O)NCc1ccccc1 [Example 8LLLLL, N^1-benzyl-N^2-(3-phenoxybenzoyl)-L-α-glutamine] | > 17000 nM | > 200000 nM | – | – | – |
| CC(C)(Cc1ccc(F)cc1)NC(=O)[C@@H](CCC(=O)O)NC(=O)c1ccc(-c2ccc(Cl)s2)cc1 [N^2-[4-(5-chloro-2-thienyl)benzoyl]-N-[2-(4-fluorophenyl)-1,1-dimethylethyl]-D-α-glutamine] | – | – | > 400 nM | > 2700 nM | – |
| O=C(O)CC[C@H](NC(=O)c1ccc2c(c1)Cc1ccccc1-2)C(=O)N[C@H](CO)Cc1ccccc1 [Example 8BBBBBB, N-[(1S)-1-benzyl-2-hydroxyethyl]-N^2-(9H-fluoren-2-ylcarbonyl)-L-α-glutamine] | 470 nM | 2670 nM | – | – | – |
| O=C(O)CC[C@H](NC(=O)c1ccc(C#CC2(O)c3ccccc3-c3ccccc32)cc1)C(=O)NCc1ccccc1 [Example 12H, N-benzyl-N^2-{4-[(9-hydroxy-9H-fluoren-9-yl)ethynyl]benzoyl}-L-α-glutamine] | 1200 nM | 1630 nM | – | – | – |
| COc1cccc(OCc2ccc(-c3ccc(C(=O)N[C@@H](CCC(=O)O)C(=O)NC(C)(C)Cc4ccccc4)cc3)cc2)c1 [Example 15BB, N-(1,1-dimethyl-2-phenylethyl)-N^2-({4′-[(3-methoxyphenoxy)methyl]biphenyl-4-yl}carbonyl)-L-α-glutamine] | 53 nM | 527 nM | – | – | – |
| COc1ccc(-c2cccc(CCNC(=O)[C@H](CCC(=O)O)NC(=O)c3ccc(-c4ccccc4)cc3)c2)cc1 [Example 10L, N^2-(biphenyl-4-ylcarbonyl)-N^1-[2-(4′-methoxybiphenyl-3-yl)ethyl]-L-α-glutamine] | – | – | – | – | IC50 ([1]; Table 1): 130 nM; IC50 ([2]; Table 1): 2000 nM |
| CC(=O)c1ccc(-c2ccc(C(=O)N[C@@H](CCC(=O)O)C(=O)NC(C)(C)Cc3ccccc3)cc2)s1 [N^2-[4-(5-acetyl-2-thienyl)benzoyl]-N-(1,1-dimethyl-2-phenylethyl)-L-α-glutamine] | – | – | 300 to 900 nM | – | inhibition at 2.5 µM ([2]; Table 3, at 2500 (nM), read-out: Agg 2 % at concentration): 5% |
| CC(C)(Cc1ccc(F)cc1)NC(=O)[C@H](CCC(=O)O)NC(=O)c1ccc(-c2ccc(F)c(Cl)c2)cc1 [Example 8SSSSSSS, N^2-[(3′-chloro-4′-fluorobiphenyl-4-yl)carbonyl]-N-[2-(4-fluorophenyl)-1,1-dimethylethyl]-L-α-glutamine] | – | – | 57 nM | 230 nM | Ki ([1]; Table 3): 22 nM; Ki ([2]; Table 3): 356 nM |
| COc1cc(COc2ccc(-c3ccc(C(=O)N[C@@H](CCC(=O)O)C(=O)NCC45CC6CC(CC(C6)C4)C5)cc3)cc2)cc(OC)c1 [Example 19B, N-(1-adamantylmethyl)-N^2-(4′-{[(3,5-dimethoxybenzyl)oxy]biphenyl-4-yl}carbonyl)-L-α-glutamine] | 3200 nM | 590 nM | – | – | – |
| CN(CCc1ccccc1)C(=O)[C@H](CCC(=O)O)NC(=O)c1ccc(-c2ccccc2)cc1 [Example 8CCCCCC, N^2-(biphenyl-4-ylcarbonyl)-N-methyl-N-(2-phenylethyl)-L-α-glutamine] | 2400 nM | > 22000 nM | – | – | – |
| CC(C)(Cc1ccc(Cl)s1)NC(=O)[C@H](CCC(=O)O)NC(=O)c1ccc(-c2ccc(F)c(F)c2)cc1 [Example 8IIIIIII, N-[2-(5-chloro-2-thienyl)-1,1-dimethylethyl]-N^2-[(3′,4′-difluorobiphenyl-4-yl)carbonyl]-L-α-glutamine] | – | – | < 30 nM | 42 nM | – |
| COc1cc(CNC(=O)[C@H](CCC(=O)O)NC(=O)c2ccc(-c3ccc(CBr)cc3)cc2)cc(OC)c1OC [Example 8MMMMMMM, N^2-{[4′-(bromomethyl)biphenyl-4-yl]carbonyl}-N-(3,4,5-trimethoxybenzyl)-L-α-glutamine] | – | – | 198 nM | 614 nM | – |
| COc1cc(OC)cc(OCc2cccc(-c3ccc(C(=O)N[C@@H](CCC(=O)O)C(=O)NCc4cccc(C)c4)cc3)c2)c1 [Example 15R, N^2-({3′-[(3,5-dimethoxyphenoxy)methyl]biphenyl-4-yl}carbonyl)-N-(3-methylbenzyl)-L-α-glutamine] | – | – | 560 nM | – | inhibition at 11 µM ([2]; Table 3, at 11000 (nM), read-out: Agg 2 % at concentration): 48% |
| CC(C)(Cc1ccc(Cl)cc1)NC(=O)[C@H](CCC(=O)O)NC(=O)c1ccc(-c2ccncc2)s1 [N-[2-(4-chlorophenyl)-1,1-dimethylethyl]-N^2-[(5-pyridin-4-yl-2-thienyl)carbonyl]-L-α-glutamine] | – | – | 40 nM | 3400 nM | – |
| CC(C)(Cc1ccc(F)cc1)NC(=O)[C@H](CCC(=O)O)NC(=O)c1ccc(-c2cccs2)s1 [Example 8BBBBBBBBB, N^2-(2,2′-bithien-5-ylcarbonyl)-N-[2-(4-fluorophenyl)-1,1-dimethylethyl]-L-α-glutamine] | – | – | < 30 nM | 100 to 300 nM | Ki ([1]; Table 3): 11.5 nM; Ki ([2]; Table 3): 681 nM |
| COc1cc(CNC(=O)[C@H](CCC(=O)O)NC(=O)c2ccc(Br)cc2)cc(OC)c1OC [Example 18D, N^2-(4-bromobenzoyl)-N-(3,4,5-trimethoxybenzyl)-L-α-glutamine] | 4400 nM | > 22000 nM | – | – | – |
| CC(C)(NC(=O)[C@H](CCC(=O)O)NC(=O)c1cccc(Oc2ccccc2)c1)c1ccccc1 [Example 8OOOOO, N^1-(1-methyl-1-phenylethyl)-N^2-(3-phenoxybenzoyl)-L-α-glutamine] | > 50000 nM | > 200000 nM | – | – | – |
| COc1cccc(-c2ccc(C(=O)N[C@@H](CCC(=O)O)C(=O)NC(C)(C)Cc3ccc(F)cc3)cn2)c1 [N-[2-(4-fluorophenyl)-1,1-dimethylethyl]-N^2-{[6-(3-methoxyphenyl)pyridin-3-yl]carbonyl}-L-α-glutamine] | – | – | 140 nM | 5200 nM | – |
| CC(C)(Cc1ccc(Cl)cc1)NC(=O)[C@H](CCC(=O)O)NC(=O)c1ccc(-c2ccc(Br)s2)cc1 [N^2-[4-(5-bromo-2-thienyl)benzoyl]-N-[2-(4-chlorophenyl)-1,1-dimethylethyl]-L-α-glutamine] | – | – | < 30 nM | 30 to 100 nM | Ki ([1]; Table 3): 8.3 nM; Ki ([2]; Table 3): 69 nM |
| CC(C)(Cc1ccccc1)NC(=O)[C@H](CCC(=O)O)NC(=O)c1ccc(-c2ccc3c(c2)OCO3)cc1 [Example 17P, N^2-[4-(1,3-benzodioxol-5-yl)benzoyl]-N-(1,1-dimethyl-2-phenylethyl)-L-α-glutamine] | 126 nM | 58 nM | – | – | – |
